What was measured:
[1] = tested on: leukemic cells; conditions: cited from earlier work
[2] = tested on: lymphoid leukemia L-1210; conditions: tumor cells implanted intraperitoneally; cited from earlier work
[3] = Preventive effect against the growth of Ehrlich ascites tumor (Method A); format: in vivo, mice (female ICR); conditions: mouse, in vivo, ip; maximum dose with 100% inhibition of Ehrlich ascites tumor without causing death; unit from dose column; read-out: MTD (Maximum Tolerated Dose)
Experimental: (§1) (A) Preventive effect against the growth of Ehrlich ascites tumor:
(§2) 10^6 tumor cells of Ehrlich ascites carcinoma were inoculated intraperitoneally into a group of five femal mice (ICR mice, body weight: 19-23 g). A test compound was dissolved in a physiological saline solution [In the case where CCNU was employed as the test compound, said compound was suspended in a physiological saline solution containing 0.1% NIKKOL HCO-60 (trademark; a surface active agent manufactured by Nikko Chemicals Co. Ltd.)] and administered intraperioneally to the mice. The administration of the test compound was begun 24 hours after the inoculation of the tumor cells and performed once a day for 5 days. The volume of ascites in the treated mice were measured after 7 days of the experiment.
(§3) ^a T = the average volume of ascites in the treated mice
(§4) C = the average volume of ascites in the untreated mice (control group of
(§5) 100% inhibition for the growth of Ehrlich ascites tumor in mice without
(§6) causing the death of said mice)
(§7) 100% inhibition for the growth of said ascites tumor)
(§8) ^e Therapeutic index = MTD/MED
(§9) *the number of mice died/the number of mice used

[4] = tested on: Ehrlich ascites carcinoma; test: as above; format: in vivo, mice (female ICR); conditions: for inhibition in vivo at 0.39 mg/kg: 0.39 mg/kg/day i.p.; for inhibition in vivo at 0.78 mg/kg: 0.78 mg/kg/day i.p.; for inhibition in vivo at 1.56 mg/kg: 1.56 mg/kg/day i.p.; for inhibition in vivo at 3.12 mg/kg: 3.12 mg/kg/day i.p.; for inhibition in vivo at 6.25 mg/kg: 6.25 mg/kg/day i.p.; for minimal effective dose: minimum dose with 100% inhibition of ascites tumor, unit from dose column, read-out: MED (Minimum Effective Dose); for inhibition in vivo at 0.19 mg/kg: 0.19 mg/kg/day i.p.; for inhibition in vivo at 0.09 mg/kg: 0.09 mg/kg/day i.p.
Experimental: as §1, §2, §3, §4, §5, §6, §7, §8, §9

[5] = tested on: Leukemia L-1210; test: Effect on the life span of mice implanted with leukemic cells of L-1210 (Method B); format: in vivo, mice (male BDF1); conditions: for ILS at 25 mg/kg / responders at 25 mg/kg: 25 mg/kg/day i.p.; for ILS at 50 mg/kg / responders at 50 mg/kg: 50 mg/kg/day i.p.; for responders at 12.5 mg/kg / ILS at 12.5 mg/kg: 12.5 mg/kg/day i.p.
Experimental: (B) Effect on the life span of mice implanted with leukemic cells of L-1210:
10^5 leukemic cells of L-1210 were inoculated intraperitoneally into a group of four or six male mice (BDF1 mice, body weight: 19-23 g). A test compound was dissolved in a physiological saline solution and administered intraperitoneally to the mice. The administration of the test compound was begun 24 hours after the inoculation of the leukemic cells and performed once a day for 5 days. The survival days of the treated mice were observed.
^a T = the mean survival days of the treated mice
C = the mean survival days of the untreated mice (control group of mice)
^b ILS(Increase in Life Span) =-
^c 60day survivors = the number of mice survived for 60 days/the

[6] = 200 mg/kg/day i.p., once a day for 5 days
[7] = Mus musculus, Ehrlich, ip, 168 h, once a day for 5 days, read-out: Inhibition ratio
[8] = Mus musculus, Ehrlich, ip, 168 h, 25 mg/kg/day i.p., once a day for 5 days, read-out: Inhibition ratio
[9] = Mus musculus, Ehrlich, ip, 168 h, 100 mg/kg/day i.p., once a day for 5 days, read-out: Inhibition ratio
[10] = Mus musculus, Ehrlich, ip, 168 h
[11] = Mus musculus, L1210, ip, 120 h, once a day for 5 days, read-out: ILS (Increase in Life Span)
[12] = Mus musculus, L1210, ip, 1440 h, once a day for 5 days, read-out: 60-day survivors (mice survived for 60 days/mice used) (converted)

Row | Compound | MTD at 168 h [3] | Toxic (number of mice died/number of mice used) [4, 6] | Therapeutic index (MTD/MED) [4] | inhibition in vivo at 0.39 mg/kg [4, 7] | inhibition in vivo at 0.78 mg/kg [4, 7] | inhibition in vivo at 1.56 mg/kg [4, 7] | inhibition in vivo at 3.12 mg/kg [4, 7] | inhibition in vivo at 6.25 mg/kg [4, 7] | inhibition in vivo at 25 mg/kg [4, 8] | inhibition in vivo at 100 mg/kg [4, 9] | minimal effective dose [4, 10] | ILS at 25 mg/kg [5, 11] | ILS at 50 mg/kg [5, 11] | responders at 12.5 mg/kg [5, 12] | responders at 25 mg/kg [5, 12] | responders at 50 mg/kg [5, 12] | inhibition in vivo at 0.19 mg/kg [4, 7] | ILS at 12.5 mg/kg [5, 11] | further results
1 | O=NN(CCCl)C(=O)NC1O[C@H](CO)[C@@H](O[C@@H]2O[C@H](CO)[C@H](O)[C@H](O)[C@H]2O)[C@H](O)[C@H]1O (stereo partly drawn) [1-(2-chloroethyl)-1-nitroso-3-(D-lactosyl)urea] | – | – | – | – | – | – | – | – | – | – | – | – | – | – | – | – | – | – | anti-tumor activity against leukemic cells [1]: show anti-tumor activity
2 | O=NN(CCCl)C(=O)NC1O[C@H](CO)[C@@H](O)[C@H](O)[C@@H]1O (stereo partly drawn) [1-(2-chloroethyl)-1-nitroso-3-(D-mannopyranosyl)urea] | – | – | – | – | – | – | – | – | – | – | – | – | – | – | – | – | – | – | life span of mice implanted with L-1210 [2]: increase the life span
3 | COCCCN(C(=O)N(CCCl)N=O)C1O[C@H](CO)[C@@H](O)[C@H](O)[C@H]1O (stereo partly drawn) [Compound 12, 1-(2-chloroethyl)-1-nitroso-3-(3-methoxy-n-propyl)-3-(D-glucopyranosyl)urea] | 100 mg/kg/day | 5/5 | 32 | 10% | 34% | 90% | 100% | 100% | 100% | 100% | 3.12 mg/kg/day | > 304% | > 757% | 0% | 25% | 100% | – | – | –
4 | COCCCN(C(=O)N(CCCl)N=O)C1OC[C@@H](O)[C@@H](O)[C@@H]1O (stereo partly drawn) [Compound 7, 1-(2-chloroethyl)-1-nitroso-3-(3-methoxy-n-propyl)-3-(D-arabinopyranosyl)urea] | 100 mg/kg/day | 5/5 | 128 | 73.2% | 100% | 100% | – | 100% | 100% | 100% | 0.78 mg/kg/day | > 641% | > 641% | 25% | 100% | 100% | 23.2% | > 215% | therapeutic index (M.T.D./M.E.D.) relative to that of GANU ([4]; Ehrlich ascites tumor, greater than that of GANU): 4 times; ILS at 3.12 mg/kg ([5]; Mus musculus, L1210, ip, 120 h, 3.12 mg/kg/day i.p., once a day for 5 days, read-out: ILS (Increase in Life Span)): 66.7%; responders at 3.12 mg/kg ([5]; Mus musculus, L1210, ip, 1440 h, 3.12 mg/kg/day i.p., once a day for 5 days, read-out: 60-day survivors (mice survived for 60 days/mice used)): 0%
5 | O=NN(CCCl)C(=O)N[C@@H]1O[C@H](CO)[C@@H](O)[C@H](O)[C@H]1O [GANU, 1-(2-chloroethyl)-1-nitroso-3-(D-glucopyranosyl)urea, reference compound] | 12.5 mg/kg/day | – | – | 100% | 100% | – | 100% | – | – | – | – | – | – | – | – | – | 79.2% | – | Toxic (number of mice died/number of mice used) ([4]; 25 mg/kg/day i.p., once a day for 5 days): 5/5; inhibition in vivo at 0.09 mg/kg [4, 7]: 4.2%; inhibition in vivo at 1.25 mg/kg ([4]; Mus musculus, Ehrlich, ip, 168 h, 1.25 mg/kg/day i.p., once a day for 5 days, read-out: Inhibition ratio): 100%; life span of mice implanted with L-1210 [2]: increase the life span
6 | COC(C)CN(C(=O)N(CCCl)N=O)C1OC[C@H](O)[C@H](O)[C@H]1O (stereo partly drawn) [Compound 5, 1-(2-chloroethyl)-1-nitroso-3-(2-methoxy-n-propyl)-3-(L-arabinopyranosyl)urea] | 50 mg/kg/day | – | 128 | 100% | 100% | – | 100% | – | – | – | 0.39 mg/kg/day | > 733% | > 678% | 75% | 100% | 75% | 36.7% | > 529% | Toxic (number of mice died/number of mice used) ([4]; 100 mg/kg/day i.p., once a day for 5 days): 4/5; inhibition in vivo at 0.09 mg/kg [4, 7]: 8.2%; inhibition in vivo at 12.5 mg/kg ([4]; Mus musculus, Ehrlich, ip, 168 h, 12.5 mg/kg/day i.p., once a day for 5 days, read-out: Inhibition ratio): 100%; inhibition in vivo at 50 mg/kg ([4]; Mus musculus, Ehrlich, ip, 168 h, 50 mg/kg/day i.p., once a day for 5 days, read-out: Inhibition ratio): 100%; ILS at 6.25 mg/kg ([5]; Mus musculus, L1210, ip, 120 h, 6.25 mg/kg/day i.p., once a day for 5 days, read-out: ILS (Increase in Life Span)): 91.7%; responders at 6.25 mg/kg ([5]; Mus musculus, L1210, ip, 1440 h, 6.25 mg/kg/day i.p., once a day for 5 days, read-out: 60-day survivors (mice survived for 60 days/mice used) (converted)): 0%; increase in the average life span ([5]; daily dose 0.5 mg/kg i.p., five consecutive days): about 30%
7 | COCC(C)N(C(=O)N(CCCl)N=O)C1O[C@H](CO)[C@H](O)[C@H](O)[C@H]1O (stereo partly drawn) [Compound 8, 1-(2-chloroethyl)-1-nitroso-3-(1-methyl-2-methoxy-ethyl)-3-(D-galactopyranosyl)urea] | 100 mg/kg/day | 5/5 | 64 | 18.4% | 65.8% | 100% | – | 100% | 100% | 100% | 1.56 mg/kg/day | > 496% | > 722% | 0% | 50% | 100% | – | 158% | –
8 | O=NN(CCCl)C(=O)NC1O[C@H](CO)[C@@H](O[C@H]2O[C@H](CO)[C@@H](O)[C@H](O)[C@H]2O)[C@H](O)[C@H]1O (stereo partly drawn) [1-(2-chloroethyl)-1-nitroso-3-(D-maltosyl)urea] | – | – | – | – | – | – | – | – | – | – | – | – | – | – | – | – | – | – | anti-tumor activity against leukemic cells [1]: show anti-tumor activity

Source: patent US4241053A, “Novel nitrosourea compounds and process for preparing the same” (Tanabe Seiyaku Co., Ltd., priority 1978, dated 1980)
